Results published in ChEMBL document CHEMBL1201862, “PubChem BioAssay data set” (2004).
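96-well plates; 48 h exposure; 5 concentrations. Endpoints by linear interpolation between flanking doses. Not reached: highest tested concentration assigned. GI50: concentration for 50% inhibition of growth.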 Active and inactive are the calls of the source. Cut-off read from the data, not from the text of the source: active = GI50 up to about 1.1 µM and inactive = higher.

Assays:
Test in all cases: inhibition of tumour cell growth, NCI panel, 48 h
SF-539 = tested on: SF-539
EKVX = tested on: EKVX
UACC-257 = tested on: UACC-257
ACHN = tested on: ACHN
HCC 2998 = tested on: HCC 2998
NCI-H226 = tested on: NCI-H226
SF-295 = tested on: SF-295
NCI-H460 = tested on: NCI-H460
OVCAR-5 = tested on: OVCAR-5
SK-MEL-5 = tested on: SK-MEL-5
SNB-75 = tested on: SNB-75
OVCAR-3 = tested on: OVCAR-3
HCT-116 = tested on: HCT-116
HT-29 = tested on: HT-29
KM12 = tested on: KM12
TK-10 = tested on: TK-10
SR = tested on: SR
HOP-92 = tested on: HOP-92

Measured: GI50

CC(=O)Nc1ccc(-c2nnc(SCC(=O)Nc3ccc(Cl)cc3)o2)cc1
inactive: SF-539 16 µM | EKVX 21 µM | UACC-257 16.4 µM | ACHN 12.7 µM | HCC 2998 17 µM | NCI-H226 11.1 µM | SF-295 11.3 µM | NCI-H460 10 µM | OVCAR-5 16.4 µM | SK-MEL-5 5.69 µM | SNB-75 21.5 µM | OVCAR-3 9.06 µM | HCT-116 7.74 µM | HT-29 10.6 µM | KM12 13.7 µM | TK-10 18.4 µM

COc1ccc(C2S/C(=C\c3ccc(OC)cc3OC)C(=O)N2NC(=O)Cc2ccccc2)cc1 (stereo unspecified)
inactive: SF-539 > 100 µM | UACC-257 > 100 µM | ACHN > 100 µM | NCI-H226 > 100 µM | SF-295 > 100 µM | NCI-H460 > 100 µM | OVCAR-5 > 100 µM | SK-MEL-5 > 100 µM | SNB-75 > 100 µM | SR > 100 µM | HCT-116 > 100 µM | HOP-92 > 100 µM | HT-29 > 100 µM | KM12 > 100 µM | TK-10 > 100 µM

CC(C)(c1ccccc1)c1ccc(Oc2ccc3c(c2)-c2nc-3nc3[nH]c(nc4nc(nc5[nH]c(n2)c2ccc(Oc6ccc(C(C)(C)c7ccccc7)cc6)cc52)-c2cc(Oc5ccc(C(C)(C)c6ccccc6)cc5)ccc2-4)c2ccc(Oc4ccc(C(C)(C)c5ccccc5)cc4)cc32)cc1
inactive: SF-539 35 µM | EKVX > 100 µM | UACC-257 > 100 µM | ACHN > 100 µM | HCC 2998 > 100 µM | NCI-H460 > 100 µM | OVCAR-5 > 100 µM | SK-MEL-5 > 100 µM | SNB-75 27.8 µM | HCT-116 > 100 µM | HOP-92 17.8 µM | HT-29 > 100 µM | KM12 > 100 µM | TK-10 80.2 µM

COc1c2c(c(OC)c3c(=O)cc(C/C(=N/NC(=O)C[n+]4ccccc4)C(=O)Nc4cc(C)ccc4C)oc13)OCO2
inactive: SF-539 > 100 µM | EKVX > 100 µM | UACC-257 > 100 µM | ACHN > 100 µM | HCC 2998 > 100 µM | NCI-H460 > 100 µM | OVCAR-5 > 100 µM | SK-MEL-5 > 100 µM | SNB-75 > 100 µM | OVCAR-3 > 100 µM | HCT-116 > 100 µM | HOP-92 > 100 µM | HT-29 > 100 µM | KM12 > 100 µM | TK-10 > 100 µM

Cc1nc2c(n1CCN(C)C)C(=O)c1ccccc1C2=O
inactive: SF-539 19.1 µM | EKVX 17.9 µM | UACC-257 14 µM | ACHN 14.8 µM | HCC 2998 19.7 µM | NCI-H226 31.6 µM | SF-295 15.7 µM | NCI-H460 9.84 µM | SK-MEL-5 7.45 µM | SNB-75 33.1 µM | SR 11.7 µM | OVCAR-3 7.03 µM | HCT-116 14.5 µM | HT-29 10.4 µM | KM12 15.2 µM | TK-10 38.8 µM

COc1c(CC(C)=O)ccc2c1C(=O)c1ccc(C=O)c(OC(C)=O)c1C2=O
inactive: SF-539 7.89 µM | EKVX 23.3 µM | UACC-257 14.3 µM | ACHN 15.1 µM | HCC 2998 11.5 µM | NCI-H226 15.7 µM | SF-295 21.2 µM | NCI-H460 23.3 µM | OVCAR-5 15.3 µM | SK-MEL-5 14.1 µM | SNB-75 20.5 µM | OVCAR-3 13.1 µM | HCT-116 11.9 µM | HOP-92 18.9 µM | HT-29 13.9 µM | KM12 14.6 µM | TK-10 27.5 µM

O=C1c2nn(-c3ccccc3)nc2C(c2ccccc2)N1c1ccccc1 (stereo unspecified)
inactive: SF-539 59.8 µM | EKVX > 100 µM | UACC-257 > 100 µM | ACHN > 100 µM | HCC 2998 > 100 µM | NCI-H226 34 µM | SF-295 41.7 µM | NCI-H460 > 100 µM | OVCAR-5 > 100 µM | SK-MEL-5 > 100 µM | SNB-75 25 µM | SR > 100 µM | OVCAR-3 > 100 µM | HCT-116 > 100 µM | HT-29 > 100 µM | KM12 > 100 µM

Cc1ccc(S(=O)(=O)N/N=C/c2oc(-c3ccncc3)c(-c3ccncc3)c2[N+](=O)[O-])cc1
inactive: SF-539 > 100 µM | EKVX > 100 µM | UACC-257 > 100 µM | ACHN > 100 µM | HCC 2998 > 100 µM | NCI-H226 > 100 µM | SF-295 > 100 µM | NCI-H460 > 100 µM | OVCAR-5 > 100 µM | SK-MEL-5 > 100 µM | SNB-75 > 100 µM | SR > 100 µM | OVCAR-3 > 100 µM | HCT-116 > 100 µM | HT-29 > 100 µM | KM12 > 100 µM | TK-10 > 100 µM

CCN1C(=O)C(=CN)C(=O)N(CC)C1=O
inactive: SF-539 > 100 µM | EKVX > 100 µM | UACC-257 > 100 µM | ACHN > 100 µM | HCC 2998 > 100 µM | NCI-H226 > 100 µM | SF-295 > 100 µM | NCI-H460 > 100 µM | OVCAR-5 > 100 µM | SK-MEL-5 > 100 µM | SNB-75 14.7 µM | OVCAR-3 > 100 µM | HCT-116 > 100 µM | HOP-92 38.8 µM | HT-29 > 100 µM | KM12 > 100 µM | TK-10 44.5 µM

CC1CCC(C(C)(C)c2ccccc2)C(=O)C1 (stereo unspecified)
inactive: SF-539 > 100 µM | EKVX > 100 µM | UACC-257 > 100 µM | ACHN > 100 µM | HCC 2998 > 100 µM | SF-295 > 100 µM | NCI-H460 > 100 µM | OVCAR-5 > 100 µM | SK-MEL-5 > 100 µM | SNB-75 > 100 µM | OVCAR-3 > 100 µM | HCT-116 > 100 µM | HOP-92 18.7 µM | HT-29 > 100 µM | KM12 > 100 µM | TK-10 > 100 µM

Cc1[nH]c2ccccc2c1C1CC(=O)NC1=O (stereo unspecified)
inactive: SF-539 > 100 µM | EKVX > 100 µM | UACC-257 > 100 µM | ACHN > 100 µM | HCC 2998 > 100 µM | NCI-H226 > 100 µM | SF-295 > 100 µM | NCI-H460 > 100 µM | OVCAR-5 > 100 µM | SK-MEL-5 > 100 µM | SNB-75 > 100 µM | OVCAR-3 > 100 µM | HCT-116 > 100 µM | HT-29 > 10 µM | KM12 > 100 µM | TK-10 > 100 µM

C/C(=C\c1ccccc1)C(O)S(=O)(=O)O (stereo unspecified)
inactive: EKVX > 100 µM | UACC-257 > 100 µM | ACHN > 100 µM | HCC 2998 > 100 µM | NCI-H226 > 100 µM | SF-295 > 100 µM | NCI-H460 > 100 µM | OVCAR-5 > 100 µM | SK-MEL-5 > 100 µM | SNB-75 > 100 µM | SR > 100 µM | OVCAR-3 > 100 µM | HCT-116 > 100 µM | HT-29 > 100 µM | KM12 > 100 µM | TK-10 > 100 µM
